Experimental data published in PubChem BioAssay AID1259332 (Broad Institute, 2017).
Active and inactive are the calls of the source. How the calls were made is not given here.

Experiment: inhibitors of CD40 signaling, dose response, B cell lineage (AID 1259332);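 further: cells stimulated with CD40 ligand tCD40L; 0% = neutral control wells and -100% = positive control wells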
Conditions: B cell line, CD40 signaling inhibition reporter; at 0.35 µM (top of the series)

Row | SMILES | activity change, negative = inhibition
1 | CCc1cnc(N2[C@H](C#N)[C@H](c3ccc(C#CCC4CCCC4)cc3)[C@@H]2CO)s1 | 4.84% (inactive)

Same assay, conditions: B cell line, CD40 signaling inhibition reporter; at 1.1 µM (top of the series)

Row | SMILES | activity change, negative = inhibition
2 | C[C@@H]1CCCCO[C@@H](CN(C)S(=O)(=O)c2ccc(Cl)cc2)[C@H](C)CN([C@H](C)CO)C(=O)c2cc(NC(=O)Nc3ccc(C(F)(F)F)cc3)ccc2O1 | 1.11% (inactive)
3 | COc1ccc(S(=O)(=O)N(C)C[C@H]2Oc3ccc(NC(=O)Nc4ccc(C(F)(F)F)cc4)cc3C(=O)N([C@@H](C)CO)C[C@@H]2C)cc1 | 11.5% (inactive)
4 | O=C1C(=NO)CCc2ccccc21 | 21.3% (inactive)

Same assay, conditions: B cell line, CD40 signaling inhibition reporter; at 3.5 µM (top of the series)

Row | SMILES | activity change, negative = inhibition
5 | N#C[C@H]1[C@H](c2ccc(C#CC3CCCCC3)cc2)[C@H](CO)N1C(=O)Nc1ccc(F)cc1 | -7.18% (inactive)
6 | C[C@@H]1CN([C@H](C)CO)C(=O)Cc2cc(NC(=O)Cc3cn(C)c4ccccc34)ccc2O[C@H]1CN(C)Cc1ccc(C(F)(F)F)cc1 | 0.703% (inactive)
7 | N#C[C@@H]1[C@@H](c2ccccc2)[C@H](CO)N1C(=O)CN1CCOCC1 | -5.63% (inactive)
8 | CCCNC(=O)N1[C@H](C#N)[C@@H](c2ccc(-c3cccc(OC)c3)cc2)[C@H]1CO | 1.94% (inactive)
9 | Oc1cc2c(cc1C(c1ccc(Br)cc1)N1CCCC1)OCO2 (centres undefined) | 16.1% (inactive)
10 | CCCNC(=O)N1[C@H](CO)[C@H](c2ccc(/C=C/c3ccccc3)cc2)[C@@H]1C#N | 5% (inactive)
11 | C[C@]12CC[C@H](O)C[C@H]1CC[C@@H]1[C@@H]2CC[C@]2(C)[C@@H](c3ccc(=O)oc3)CC[C@]12O | 1.4% (inactive)
12 | C[C@@H]1CN([C@@H](C)CO)C(=O)Cc2cc(NS(=O)(=O)c3ccccc3)ccc2O[C@H]1CN(C)Cc1ccc(Cl)c(Cl)c1 | 0.835% (inactive)

Same assay, conditions: B cell line, CD40 signaling inhibition reporter; at 10 µM (top of the series)

Row | SMILES | activity change, negative = inhibition
13 | COc1ccc(CN2CC3(CN(S(=O)(=O)c4ccc(C)cc4)C3)c3c([nH]c4cc(OC)ccc34)[C@H]2CO)cc1 | -1.27% (inactive)
14 | Cc1c(C(=O)c2cccc3ccccc23)c2cccc3c2n1[C@H](CN1CCOCC1)CO3 | -18.3% (inactive)
15 | C=C1C(=O)OC2C=C(CO)CCC=C(CO)CC(OC(=O)C(C)C)C12 (centres undefined) | 14% (inactive)
16 | CC12CN3CC(C)(CN(C1)C3c1ccc3c(c1)OCO3)C2=O (centres undefined) | 6.2% (inactive)
17 | Cc1ccc2c(c1)C(O)(CC(=O)/C=C/C=C/c1ccccc1)C(=O)N2 (centres undefined) | -5.49% (inactive)
18 | Cc1cc(C(=O)COC(=O)c2cccn2C)c(C)n1Cc1ccco1 | -4.27% (inactive)
19 | COc1cccc(S(=O)(=O)N(C)C[C@@H]2OCc3ccccc3-c3c(n(C)c4ccccc34)C(=O)N([C@@H](C)CO)C[C@@H]2C)c1 | 8.02% (inactive)
20 | C(=Cc1c[nH]c2ccccc12)c1nccc2ccccc12 | 74.5% (inactive)
21 | O=C(CNCCO)N1N=C(c2cccs2)CC1c1cccs1 (centres undefined) | 12.3% (inactive)
22 | COCCn1c(C)cc(C(=O)COC(=O)c2ccc(Br)o2)c1C | -11.7% (inactive)
23 | COc1ccc(C(=O)/C=C/C(=O)N(CC(=O)NC2CCCCC2)Cc2ccc(F)cc2)c(O)c1 | -5.51% (inactive)
24 | CC12CC[C@H]3[C@@H](CCC4(O)C[C@H](O)CCC34/C=N/NC(=O)Cc3ccccc3)C1(O)CCC2C1=CC(=O)OC1 (some centres undefined) | 5.75% (inactive)
25 | C[C@@H]1CN([C@@H](C)CO)S(=O)(=O)c2ccc(C#Cc3ccccc3F)cc2O[C@H]1CN(C)C(=O)Cc1cccnc1 | -17.7% (inactive)
26 | Cc1ccc(C(CC(=O)NCc2ccco2)c2ccc(OC(C)C)cc2)cc1 (centres undefined) | 3.92% (inactive)
27 | CCCCc1nc2ccccc2[nH]1 | 2.81% (inactive)
28 | CC(C)Cc1ccc(C(C)/C=C2/CCC(CN3CCCCC3)C2=O)cc1 (centres undefined) | -18.1% (inactive)
29 | CC(C)OC(=O)CC1C(=O)NCCN1C(=S)NC(=O)c1cccs1 (centres undefined) | 15.3% (inactive)
